Source: patent US20240197869A1, “HYPERACTIVATORS OF MAMMALIAN DENDRITIC CELLS” (Corner Therapeutics, Inc., priority 2021, published 2024)

What was measured:
[1] = tested on: human monocyte-derived dendritic cells (moDCs); assay: DAMP screen: IL-1β secretion by LPS-activated human moDCs (ELISA); type: cell-based
Protocol: Danger-Associated Molecular Pattern (DAMP) Screen.
(§1) Quantification of IL-1beta Secretion. IL-1beta secretion was assessed using the ELISA MAX Deluxe Set Human IL-1beta kit (Biolegend). ELISAs were performed according to manufacturer's instructions with the following modifications: i) total sample volume for incubation was reduced from […] the top standard was prepared at […], with two-fold dilutions to […]; and iii) sample incubation was completed overnight at 4 C on an orbital shaker. […] To determine IL-1beta concentration in supernatants, sample IL-1beta concentrations were interpolated using a standard curve via 4PL analysis on GraphPad Prism 9 (GraphPad Software). The interpolated results of samples were then adjusted for any dilutions made to the supernatant.

[2] = tested on: human monocyte-derived dendritic cells (moDCs); assay: DAMP screen: viability of human moDCs (CellTiter-Glo)
Protocol: Danger-Associated Molecular Pattern (DAMP) Screen. After 6 days of differentiation into moDC, cells were collected and counted. Cells were plated at 100,000 cells/well in R10 media in 96-well flat bottom tissue culture-treated plates. LPS, serotype O55:B5 (Enzo Life Sciences) was added to a final concentration of 1 μg/mL in each well. […] Cells were incubated at 37° C., 5% CO2 for two days. Cell cultures were then used for endpoint analyses.
Endpoint Analyses. After culturing moDCs with PAMPs and DAMPs for two days, supernatant and cell samples were collected for analysis.
(§2) Quantification of Cell Viability. Cell viability was assessed by quantifying the presence of ATP as an indicator of metabolically active cells using the CellTiter-Glo Luminescent Cell Viability Assay (Promega). Metabolic activity was assessed following manufacturer's instructions. The CellTiter-Glo reagent was mixed with the cell pellets and remaining supernatant, and transferred to a white, opaque 96-well plate. Luminescence was measured on all wavelengths on a Spectramax iD3 plate reader (Molecular Devices) using an integration time of 500 ms. Percent viability was calculated relative to the control condition of moDCs treated with LPS.

[3] = tested on: human monocyte-derived dendritic cells (moDCs); assay: Lipid titration: IL-1β secretion by LPS-activated human moDCs; type: cell-based
Protocol: as §1

[4] = tested on: human monocyte-derived dendritic cells (moDCs); assay: Lipid titration: viability of human moDCs (CellTiter-Glo); details: 10.3 μM lipid + LPS 1 μg/mL, 2 days; relative to LPS-treated moDCs; Table 1-5
Protocol: Lipid Titration. After 6 days of differentiation into moDC, cells were collected and counted. Cells were replated at 100,000 cells/well in R10 media in 96-well flat bottom tissue culture-treated plates. LPS, serotype 055:B5 (Enzo Life Sciences) was added to a final concentration of 1 μg/mL in each well. After the addition of LPS, lipids were prepared. […] After two days of culture, cell cultures were used for endpoint analyses.
Endpoint Analyses. After culturing moDCs with PAMPs and DAMPs for two days, supernatant and cell samples were collected for analysis. Cells in culture were pelleted by centrifugation at 400×g for 5 min.
as §2
Statistical Analyses. […] For each tested condition, cells from each donor were plated to be tested in triplicate.

[5] = 41.3 μM lipid + LPS 1 μg/mL, 2 days, Table 1-2
[6] = 41.3 μM lipid + LPS 1 μg/mL, 2 days, relative to LPS-treated moDCs, Table 1-2
[7] = 82.5 μM lipid + LPS 1 μg/mL, 2 days, relative to LPS-treated moDCs, Table 1-1
[8] = 10.3 μM lipid + LPS 1 μg/mL, 2 days, Table 1-5
[9] = 20.6 μM lipid + LPS, human moDCs, 4 donors, mean (SD in wrapped line below)
[10] = 82.5 μM lipid + LPS, selected lipids, Table 1-3 (repeats Table 1-1)

SMILES | IL-1β secretion [1, 5] | Relative Viability (%) ± SD [2, 6] | Relative Viability (%) ± SD [2, 7] | other results
CCCCCCCCCCCCCCCC(=O)O[C@H](CO)COP(=O)([O-])OCC[N+](C)(C)C [2-16:0 LYSO PC, 1-hydroxy-2-palmitoyl-sn-glycero-3-phosphocholine] | 93.0 pg/mL | 87.2% | 43.9% | 
CCCCCCCCCCCCCCCCCC(=O)O[C@H](CO)COP(=O)([O-])OCC[N+](C)(C)C [2-18:0 LYSO PC, 2-stearoyl-sn-glycero-3-phosphocholine] | 225.0 pg/mL | 65.3% | 11.5% | 
CCCCCCCC/C=C\CCCCCCCC(=O)O[C@H](CO)COP(=O)([O-])OCC[N+](C)(C)C [2-18:1 Δ9 LYSO PC, 1-hydroxy-2-oleoyl-sn-glycero-3-phosphocholine] | 45.0 pg/mL | 100.6% | 97.7% | 
CCCCCC(=O)OC[C@@H](O)COP(=O)([O-])OCC[N+](C)(C)C [06:0 LYSO PC] | 48.2 pg/mL | 96.1% | 92.8% | 
CCCCCCC(=O)OC[C@@H](O)COP(=O)([O-])OCC[N+](C)(C)C [07:0 LYSO PC] | 36.0 pg/mL | 97.9% | 93.9% | 
CCCCCCCC(=O)OC[C@@H](O)COP(=O)([O-])OCC[N+](C)(C)C [08:0 LYSO PC] | 32.2 pg/mL | 96.7% | 95.3% | 
CCCCCCCCC(=O)OC[C@@H](O)COP(=O)([O-])OCC[N+](C)(C)C [09:0 LYSO PC] | 31.3 pg/mL | 98.2% | 95.4% | 
CCCCCCCCCCC(=O)OC[C@@H](O)COP(=O)([O-])OCC[N+](C)(C)C [11:0 LYSO PC] | 39.3 pg/mL | 94.9% | 92.8% | 
CCCCCCCCCCCC(=O)OC[C@@H](O)COP(=O)([O-])OCC[N+](C)(C)C [12:0 LYSO PC] | 54.5 pg/mL | 96.6% | 91.1% | IL-1β secretion [3, 8]: 43.1 pg/mL; IL-1β secretion [3, 9]: 44.2 pg/mL; IL-1β secretion [1, 10]: 115.3 pg/mL; Relative Viability (%) ± SD [4]: 97.3%; Relative Viability (%) ± SD [2, 10]: 91.1%
CCCCCCCCCCCCC(=O)OC[C@@H](O)COP(=O)([O-])OCC[N+](C)(C)C [13:0 LYSO PC, 1-tridecanoyl-2-hydroxy-sn-glycero-3-phosphocholine] | 80.7 pg/mL | 93.9% | 93.2% | 
CCCCCCCCCCCCCCCC(=O)O[C@H](COC(=O)CCCCCCCCCCCCC)COP(=O)([O-])OCC[N+](C)(C)C [14:0-16:0 PC] | 32.7 pg/mL | 97.1% | 90.8% | 
CCCCCCCCCCCCCCCCCC(=O)O[C@H](COC(=O)CCCCCCCCCCCCC)COP(=O)([O-])OCC[N+](C)(C)C [14:0-18:0 PC] | 24.0 pg/mL | 100.0% | 90.5% | 
CCCCCCCCCCCCCCC(=O)OC[C@@H](O)COP(=O)([O-])OCC[N+](C)(C)C [15:0 LYSO PC, 1-pentadecanoyl-2-hydroxy-sn-glycero-3-phosphocholine] | 150.3 pg/mL | 90.8% | 65.4% | 
CCCCCCCCCCCCCCCC(=O)OC[C@@H](O)COP(=O)([O-])OCC[N+](C)(C)C [16:0 LYSO PC, 1-palmitoyl-2-hydroxy-sn-glycero-3-phosphocholine] | 97.4 pg/mL | 87.2% | 44.7% | 
CCCCCCCCCCCCCCCC(=O)OC[C@H](COP(=O)([O-])OCC[N+](C)(C)C)OC(=O)CCCCCCCCCCCCC [16:0-14:0 PC] | 42.2 pg/mL | 101.0% | 87.4% | 
CCCCCCCCCCCCCCCCCC(=O)O[C@H](COC(=O)CCCCCCCCCCCCCCC)COP(=O)([O-])OCC[N+](C)(C)C [16:0-18:0 PC] | 26.3 pg/mL | 97.7% | 88.8% | 
CCCCCCCC/C=C\CCCCCCCC(=O)O[C@H](COC(=O)CCCCCCCCCCCCCCC)COP(=O)([O-])OCC[N+](C)(C)C [16:0-18:1 PC (POPC)] | 28.2 pg/mL | 96.5% | 92.9% | 
CCCCCCCCCCCCCCCC(=O)OC[C@H](COP(=O)([O-])OCC[N+](C)(C)C)OC(=O)CCCCCCCCCCC(CCCCCC)OC(=O)CCCCCCCCCCCCCCC (stereo partly drawn) [16:0-(12-PAHSA) PC] | 37.0 pg/mL | 98.3% | 96.9% | 
CCCCCC/C=C\CCCCCCCCC(=O)OC[C@@H](O)COP(=O)([O-])OCC[N+](C)(C)C [17:1 Δ^10 LYSO PC, 1-(10Z-heptadecenoyl)-2-hydroxy-sn-glycero-3-phosphocholine] | 42.7 pg/mL | 97.2% | 95.3% | 
CCCCCCCCCCCCCCCCCC(=O)OC[C@H](COP(=O)([O-])OCC[N+](C)(C)C)OC(=O)CCCCCCCCCCCCC [18:0-14:0 PC] | 31.2 pg/mL | 98.1% | 86.1% | 
CCCCCCCCCCCCCCCCCC(=O)OC[C@H](COP(=O)([O-])OCC[N+](C)(C)C)OC(=O)CCCCCCCCCCCCCCC [18:0-16:0 PC] | 20.1 pg/mL | 100.3% | 85.3% | 
CCCCCCCC/C=C\CCCCCCCC(=O)OC[C@@H](O)COP(=O)([O-])OCC[N+](C)(C)C [18:1 Δ^9 LYSO PC] | 34.8 pg/mL | 97.8% | 91.5% | 
CCCCCCCCCCCCCCCCCCC(=O)OC[C@@H](O)COP(=O)([O-])OCC[N+](C)(C)C [19:0 LYSO PC, 1-nonadecanoyl-2-hydroxy-sn-glycero-3-phosphocholine] | 468.9 pg/mL | 39.4% | 2.7% | IL-1β secretion [3, 8]: 43.0 pg/mL; IL-1β secretion [3, 9]: 55.6 pg/mL; lipid activity index, ranking in words ([3]; lipid 1.3-82.5 μM + LPS): followed by 19:0 Lyso PC; Activity Units (AU) ± SD (lipid activity index) ([3]; reciprocal of lowest concentration giving IL-1β two-fold over LPS x highest IL-1β signal, lipid 1.3-82.5 μM + LPS): 6.34 ± 3.39 AU; IL-1β secretion [1, 10]: 209.3 pg/mL; Relative Viability (%) ± SD [4]: 96.4%; Relative Viability (%) ± SD [2, 10]: 2.7%
CCCCCCCCCCCCCCCCCCCC(=O)OC[C@@H](O)COP(=O)([O-])OCC[N+](C)(C)C [20:0 LYSO PC, 1-arachidoyl-2-hydroxy-sn-glycero-3-phosphocholine] | 168.7 pg/mL | 75.2% | 6.0% | 
CCCCCCCCCCCCCCCCCCCCCCCCCC(=O)OC[C@@H](O)COP(=O)([O-])OCC[N+](C)(C)C [26:0 LYSO PC] | 43.1 pg/mL | 93.3% | 94.7% | 
